23 compounds from patent US20050197338A1, “Substituted pyrazole urea compounds for the treatment of inflammation” (priority 2003, published 2005) can be followed below.

Each structure is given as a SMILES string.

One may read the IC50 as the concentration at which inhibition is half-maximal.

The experiment addresses T1, human IKK-2 (rhIKK-2 homodimer) (Homo sapiens, UniProt O14920).
T1 construct: FLAG (DYKDDDDKD) (C); made in house; host or cells: insect cells (baculovirus, pFastBac)
T1 sequence (O14920 1-756): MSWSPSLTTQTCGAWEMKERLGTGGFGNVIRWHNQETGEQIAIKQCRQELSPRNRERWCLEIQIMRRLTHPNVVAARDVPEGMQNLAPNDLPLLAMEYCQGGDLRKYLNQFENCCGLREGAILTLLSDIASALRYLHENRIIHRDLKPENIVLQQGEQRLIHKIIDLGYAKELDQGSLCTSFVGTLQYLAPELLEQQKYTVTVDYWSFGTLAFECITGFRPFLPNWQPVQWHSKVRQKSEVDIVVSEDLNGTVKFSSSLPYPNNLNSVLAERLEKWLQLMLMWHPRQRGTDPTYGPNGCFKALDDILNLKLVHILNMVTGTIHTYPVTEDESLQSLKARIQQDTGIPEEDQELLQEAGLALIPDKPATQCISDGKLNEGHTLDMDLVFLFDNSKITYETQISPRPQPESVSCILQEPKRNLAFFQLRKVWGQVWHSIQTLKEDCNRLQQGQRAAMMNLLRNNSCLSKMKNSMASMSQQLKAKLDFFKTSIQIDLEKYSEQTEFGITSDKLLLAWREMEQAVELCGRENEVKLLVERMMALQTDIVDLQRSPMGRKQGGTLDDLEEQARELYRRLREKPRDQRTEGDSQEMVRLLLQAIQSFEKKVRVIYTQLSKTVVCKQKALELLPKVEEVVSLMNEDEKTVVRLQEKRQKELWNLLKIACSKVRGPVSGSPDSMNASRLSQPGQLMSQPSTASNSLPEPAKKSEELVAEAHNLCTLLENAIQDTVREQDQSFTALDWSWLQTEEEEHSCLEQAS
The experiment is described as follows: IKK-2 Resin Enzyme Assay (Human IKK-2 Enzyme Assay). The experiment is classed as biochemical. The following applies: human IKK-2, resin enzyme assay; read-out: IC50 (μM) hIKK-2. The source says: Materials: SAM^2™96 Biotin capture plates were from Promega. Anti-FLAG affinity resin, FLAG-peptide, NP-40 (Nonidet P-40), BSA, ATP, ADP, AMP, LPS (E. coli serotype 0111:B4), and dithiothreitol were obtained from Sigma Chemicals. Antibodies specific for NEMO (IKK-γ) (FL-419), IKK-1 (H-744), IKK-2(H-470) and IκBa(C-21) were purchased from Santa Cruz Biotechnology. Ni-NTA resin was purchased from Qiagen. Peptides were purchased from American Peptide Company. Protease inhibitor cocktail tablets were from Boehringer Mannheim. Sephacryl S-300 column was from Pharmacia LKB Biotechnology. Centriprep-10 concentrators with a molecular weight cutoff of 10 kDa and membranes with molecular weight cut-off of 30 kDa were obtained from Amicon. [γ-^33P] ATP (2500 Ci/mmol) and [γ-^32P] ATP (6000 Ci/mmol) were purchased from Amersham. The other reagents used were of the highest grade commercially available.
Cloning and Expression: cDNAs of human IKK-1 and IKK-2 were amplified by reverse transcriptase-polymerase chain reaction from human placental RNA (Clonetech). hlKK-1 was subcloned into pFastBac HTa (Life Technologies) and expressed as N-terminal His6-tagged fusion protein. The hlKK-2 cDNA was amplified using a reverse oligonucleotide primer which incorporated the peptide sequence for a FLAG-epitope tag at the C-terminus of the IKK-2 coding region (DYKDDDDKD). The hlKK-2:FLAG cDNA was subcloned into the baculovirus vector pFastBac. The rhIKK-2 ([…]) mutant was constructed in the same vector used for wild type rhIKK-2 using a QuikChange™ mutagenesis kit (Stratagene). Viral stocks of each construct were used to infect insect cells grown in 40 L suspension culture. […] Cell lysates were stored at −80° C. until purification of the recombinant proteins was undertaken as described below.
Enzyme Isolation: All purification procedures were carried out at 4° C. unless otherwise noted. Buffers used are: buffer A: 20 mM Tris-HCl, pH 7.6, containing 50 mM NaCl, 20 mM NaF, 20 mM β-Glycerophosphate, 500 μM sodium orthovanadate, 2.5 mM metabisulfite, 5 mM benzamidine, 1 mM EDTA, 0.5 mM EGTA, 10% glycerol, 1 mM DTT, 1× Complete™ protease inhibitors; buffer B: same as buffer A, except 150 mM NaCl, and buffer C: same as buffer A, except 500 mM NaCl.
Isolation of rhIKK-2 homodimer: A 10-liter culture of baculovirus-expressing IKK-2 tagged with FLAG peptide was centrifuged and the cell pellet (MOI=0.1 and 1=72 h) was re-suspended in buffer A. These cells were microfluidized, and centrifuged at 100,000×g for 45 min. Supernatant was passed over a G-25 column equilibrated with Buffer A. Protein peak was collected and incubated with anti-FLAG affinity resin on a rotator overnight in buffer B. The resin was washed in batch with 10-15 bed volumes of buffer C. Washed resin was poured into a column and rhIKK-2 homodimer was eluted using 5 bed volumes of buffer B containing FLAG peptide. 5 mM DTT, 0.1% NP-40 and BSA (concentrated to 0.1% in final amount) was added to the eluted enzyme before concentrating in using an Amicon membrane with a molecular weight cut-off of 30 kDa. Enzyme was aliquoted and stored at −80° C.
IKK-2 Resin Enzyme Assay: IKK-2 kinase activity was measured using a biotinylated IκBα peptide (Gly-Leu-Lys-Lys-Glu-Arg-Leu-Leu-Asp-Asp-Arg-His-Asp-Ser32-Gly-Leu-Asp-Ser36-Met-Lys-Asp-Glu-Glu) (American Peptide Co.). 20 μL of the standard reaction mixture contained 5 μM biotinylated IκBα peptide, 0.1 μCi/reaction [γ-^33P] ATP (Amersham) (about 1×10^5 cpm), 1 μM ATP (Sigma), 1 mM DTT (Sigma), 2 mM MgCl2 (Sigma), 2 mM MnCl2 (Sigma), 10 mM NaF (Sigma), 25 mM Hepes (Sigma) buffer, pH 7.6 and 20 μL enzyme solution and 10 μL inhibitor in a final volume of 50 μL. After incubation at 25° C. for 30 min, 150 μL resin (Dowex anion-exchange resin AG1X8 200-400 mesh) in 900 mM formate, pH 3.0 was added to each well to stop the reaction. Resin was allowed to settle for 1 h and 50 μL of supernatant was removed to a Micolite-2 flat bottom plate (Dynex). […]
Regarding `CS(=O)(=O)Nc1ccc(-c2cccc(-n3cc(NC(N)=O)c(C(N)=O)n3)c2)cc1` [Example 59, 4-[(aminocarbonyl)amino]-1-{4′-[(methylsulfonyl)amino]-1,1′-biphenyl-3-yl}-1H-pyrazole-3-carboxamide], the IC50 amounted to 1.64 µM. For `NC(=O)Nc1cn(-c2cccc(-c3cccc4ncccc34)c2)nc1C(N)=O` [Example 60, 4-[(aminocarbonyl)amino]-1-(3-quinolin-5-ylphenyl)-1H-pyrazole-3-carboxamide], the IC50 is 3.75 µM.

As to `CN(C)c1ccc(-c2cccc(-n3cc(NC(N)=O)c(C(N)=O)n3)c2)cc1` [Example 61], the IC50 was determined as 6.21 µM. With `NC(=O)Nc1cn(-c2cccc(-c3ccc4c(c3)OCO4)c2)nc1C(N)=O` [Example 62, 4-[(aminocarbonyl)amino]-1-[3-(1,3-benzodioxol-5-yl)phenyl]-1H-pyrazole-3-carboxamide], the IC50 was found to be 7.91 µM.

Consider `Cc1cc(-c2cccc(-n3cc(NC(N)=O)c(C(N)=O)n3)c2)ccn1` [Example 63, 4-[(aminocarbonyl)amino]-1-[3-(2-methylpyridin-4-yl)phenyl]-1H-pyrazole-3-carboxamide], for which the concentration for half-maximal inhibition (IC50) was 0.59 µM. Then `CN1CCOc2cc(-c3cccc(-n4cc(NC(N)=O)c(C(N)=O)n4)c3)ccc21` [Example 64, 4-[(aminocarbonyl)amino]-1-[3-(4-methyl-3,4-dihydro-2H-1,4-benzoxazin-7-yl)phenyl]-1H-pyrazole-3-carboxamide], with 6.08 µM; and `NC(=O)Nc1cn(-c2cccc(-c3ccc4[nH]ccc4c3)c2)nc1C(N)=O` [Example 65, 4-[(aminocarbonyl)amino]-1-[3-(1H-indol-5-yl)phenyl]-1H-pyrazole-3-carboxamide], with 1.8 µM; and `NC(=O)Nc1cn(-c2cccc(-c3cncnc3)c2)nc1C(N)=O` [Example 66, 4-[(aminocarbonyl)amino]-1-(3-pyrimidin-5-ylphenyl)-1H-pyrazole-3-carboxamide], with 5.2 µM. The value for `NC(=O)Nc1cn(-c2cccc(/C=C/c3ccccc3)c2)nc1C(N)=O` [Example 67, 4-[(aminocarbonyl)amino]-1-{3-[(E)-2-phenylvinyl]phenyl}-1H-pyrazole-3-carboxamide] was 5.24 µM; that for `NC(=O)Nc1cn(-c2cccc(-c3ccc[nH]3)c2)nc1C(N)=O` [Example 68] was 0.55 µM. With `Cc1cnccc1-c1cccc(-n2cc(NC(N)=O)c(C(N)=O)n2)c1` [Example 69, 4-[(aminocarbonyl)amino]-1-[3-(3-methylpyridin-4-yl)phenyl]-1H-pyrazole-3-carboxamide], the IC50 turned out to be 0.65 µM.

Regarding `Cc1noc(C)c1-c1cccc(-n2cc(NC(N)=O)c(C(N)=O)n2)c1` [Example 70, 4-[(aminocarbonyl)amino]-1-[3-(3,5-dimethylisoxazol-4-yl)phenyl]-1H-pyrazole-3-carboxamide], the IC50 amounted to 0.88 µM.

On to `NC(=O)Nc1cn(-c2cccc(-c3ccccc3O)c2)nc1C(N)=O` [Example 71, 4-[(aminocarbonyl)amino]-1-(2′-hydroxy-1,1′-biphenyl-3-yl)-1H-pyrazole-3-carboxamide], for which the IC50 stood at 2.25 µM. Take `NC(=O)Nc1cn(-c2cccc(-c3cccc(O)c3)c2)nc1C(N)=O` [Example 72, 4-[(aminocarbonyl)amino]-1-(3′-hydroxy-1,1′-biphenyl-3-yl)-1H-pyrazole-3-carboxamide]: the IC50 is 0.44 µM. The value for `NC(=O)Nc1cn(-c2cccc(-c3cccc(C(=O)O)c3)c2)nc1C(N)=O` [Example 73, 3′-{3-(aminocarbonyl)-4-[(aminocarbonyl)amino]-1H-pyrazol-1-yl}-1,1′-biphenyl-3-carboxylic acid] was 8.03 µM; that for `CNC(=O)c1ccc(-c2cccc(-n3cc(NC(N)=O)c(C(N)=O)n3)c2)cc1` [Example 74, 4-[(aminocarbonyl)amino]-1-{4′-[(methylamino)carbonyl]-1,1′-biphenyl-3-yl}-1H-pyrazole-3-carboxamide] was 0.94 µM; that for `CCCNC(=O)c1ccc(-c2cccc(-n3cc(NC(N)=O)c(C(N)=O)n3)c2)cc1` [Example 75, 4-[(aminocarbonyl)amino]-1-{4′-[(propylamino)carbonyl]-1,1′-biphenyl-3-yl}-1H-pyrazole-3-carboxamide] was 0.48 µM. For `CC(=O)Nc1cccc(-c2cccc(-n3cc(NC(N)=O)c(C(N)=O)n3)c2)c1` [Example 76, 1-[3′-(acetylamino)-1,1′-biphenyl-3-yl]-4-[(aminocarbonyl)amino]-1H-pyrazole-3-carboxamide], the half-maximal inhibitory concentration (IC50) was 0.9 µM. On to `Cc1ccc(-c2cccc(-n3cc(NC(N)=O)c(C(N)=O)n3)c2)cc1N` [Example 77, 4-[(aminocarbonyl)amino]-1-(3′-amino-4′-methyl-1,1′-biphenyl-3-yl)-1H-pyrazole-3-carboxamide], for which the IC50 is 0.8 µM.

On to `NCc1cccc(-c2cccc(-n3cc(NC(N)=O)c(C(N)=O)n3)c2)c1` [Example 78, 4-[(aminocarbonyl)amino]-1-[3′-(aminomethyl)-1,1′-biphenyl-3-yl]-1H-pyrazole-3-carboxamide], for which the IC50 amounted to 0.81 µM.

Consider `NC(=O)Nc1cn(-c2cccc(-c3cccc(C(N)=O)c3)c2)nc1C(N)=O` [Example 79, 4-[(aminocarbonyl)amino]-1-[3′-(aminocarbonyl)-1,1′-biphenyl-3-yl]-1H-pyrazole-3-carboxamide], for which the half-maximal inhibitory concentration (IC50) is 5.67 µM.

Take `NC(=O)Nc1cn(-c2cccc(-c3ccc(C(=O)NC4CC4)cc3)c2)nc1C(N)=O` [Example 80, 4-[(aminocarbonyl)amino]-1-{4′-[(cyclopropylamino)carbonyl]-1,1′-biphenyl-3-yl}-1H-pyrazole-3-carboxamide]: the half-maximal inhibitory concentration (IC50) came out at 0.6 µM. Then `NC(=O)Nc1cn(-c2cccc(-c3cccc(C(=O)NC4CC4)c3)c2)nc1C(N)=O` [Example 81], with 1.65 µM.
